Active and inactive are the calls of the source. No cut-off for these calls is given here.
Experiments:
[1] = Drug uptake in C57Bl/6 mouse NOR model brain at 0.03 mg/kg, sc measured after 0.5 hrs; format: ADME, organism-based; details: read-out: Drug uptake
[2] = Drug uptake in C57Bl/6 mouse NOR model brain at 1 mg/kg, sc measured after 0.5 hrs; format: ADME, organism-based; details: read-out: Drug uptake
Mus musculus [3] = test: Reversal of NMDAR antagonist MK-801-induced memory deficits in C57Bl/6 mouse at 1 and 3 mg/kg, sc administered 30 mins prior to […] challenge measured after 30 mins by Y maze assay; format: functional, organism-based
[4] = Metabolic stability in human microsomes assessed as compound remaining measured after 10 mins; format: ADME, Microsome; details: read-out: Stability
Mus musculus [5] = test: Cognitive enhancing effect in C57Bl/6 mouse administered subcutaneously for 30 mins prior to training measured after 24 hrs by novel recognition assay; format: functional; details: C57Bl/6, sc, read-out: MED
[6] = Plasma concentration in C57Bl/6 mouse NOR model at 0.1 mg/kg, sc measured after 0.5 hrs; format: ADME, organism-based
[7] = molecular target: Neuronal acetylcholine receptor; alpha3/beta4 (Rattus norvegicus, UniProt P04757+P12392); test: Agonist activity at rat alpha3beta4 nAChR expressed in HEK293 cells for 2 mins by FLIPR assay; format: cell-based
Cytochrome P450 2C8 = molecular target: T1, Cytochrome P450 2C8 (Homo sapiens, UniProt P10632); test: Inhibition of human CYP2C8; format: ADME
T1 sequence (P10632 whole entry): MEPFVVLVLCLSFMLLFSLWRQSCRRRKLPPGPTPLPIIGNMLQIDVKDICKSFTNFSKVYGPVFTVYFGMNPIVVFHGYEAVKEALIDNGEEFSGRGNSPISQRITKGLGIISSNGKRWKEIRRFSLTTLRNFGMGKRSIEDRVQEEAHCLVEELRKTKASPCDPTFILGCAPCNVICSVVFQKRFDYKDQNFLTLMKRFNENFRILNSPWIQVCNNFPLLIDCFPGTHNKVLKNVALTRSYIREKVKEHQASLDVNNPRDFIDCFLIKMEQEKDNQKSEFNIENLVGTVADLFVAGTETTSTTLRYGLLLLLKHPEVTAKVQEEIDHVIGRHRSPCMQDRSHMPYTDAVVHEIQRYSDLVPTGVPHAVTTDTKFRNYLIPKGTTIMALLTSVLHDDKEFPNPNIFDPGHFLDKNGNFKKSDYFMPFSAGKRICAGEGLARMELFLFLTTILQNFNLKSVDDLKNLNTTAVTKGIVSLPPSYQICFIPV

Cytochrome P450 3A4 [8] = molecular target: T2, Cytochrome P450 3A4 (Homo sapiens, UniProt P08684); test: Inhibition of human CYP3A4 using BZR as substrate; format: ADME
Cytochrome P450 2C9 = Cytochrome P450 2C9 (Homo sapiens, UniProt P11712); test: Inhibition of human CYP2C9; format: ADME
Mus musculus [9] = test: Cognitive enhancing effect in C57Bl/6 mouse at 0.1 to 1 mg/kg, sc administered 30 mins prior to training measured after 24 hrs by novel recognition assay; format: functional, organism-based
Mus musculus [10] = test: Cognitive enhancing effect in C57Bl/6 mouse at 0.3 mg/kg, sc administered 30 mins to 6 hrs prior to training measured after 24 hrs by novel recognition assay; format: functional, organism-based
Cytochrome P450 2B6 = molecular target: T3, Cytochrome P450 2B6 (Homo sapiens, UniProt P20813); test: Inhibition of human CYP2B6; format: ADME
T3 sequence (P20813 whole entry): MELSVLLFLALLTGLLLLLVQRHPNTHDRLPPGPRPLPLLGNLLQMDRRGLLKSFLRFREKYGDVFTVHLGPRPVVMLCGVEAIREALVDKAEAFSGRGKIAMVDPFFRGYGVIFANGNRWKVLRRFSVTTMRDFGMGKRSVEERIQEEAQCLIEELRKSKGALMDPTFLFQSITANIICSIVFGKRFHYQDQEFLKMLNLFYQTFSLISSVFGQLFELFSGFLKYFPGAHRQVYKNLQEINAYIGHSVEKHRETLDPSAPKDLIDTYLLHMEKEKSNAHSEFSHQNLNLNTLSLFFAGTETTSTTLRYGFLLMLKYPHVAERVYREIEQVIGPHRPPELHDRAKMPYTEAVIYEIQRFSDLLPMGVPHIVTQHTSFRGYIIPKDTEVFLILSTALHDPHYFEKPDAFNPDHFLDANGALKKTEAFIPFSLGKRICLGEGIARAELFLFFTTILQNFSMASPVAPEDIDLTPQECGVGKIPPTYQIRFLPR

[11] = Plasma concentration in C57Bl/6 mouse NOR model at 1 mg/kg, sc measured after 0.5 hrs; format: ADME, organism-based
[12] = Plasma concentration in C57Bl/6 mouse NOR model at 0.03 mg/kg, sc measured after 0.5 hrs; format: ADME, organism-based
[13] = molecular target: Nicotinic acetylcholine receptor alpha-1/beta-1/delta/epsilon (Rattus norvegicus, UniProt P09660+P25108+P25109+P25110); test: Agonist activity at rat alpha1beta1deltaepsilon nAChR expressed in HEK293 cells for 2 mins by FLIPR assay; format: cell-based
Cytochrome P450 1A2 = molecular target: T4, Cytochrome P450 1A2 (Homo sapiens, UniProt P05177); test: Inhibition of human CYP1A2; format: ADME
T4 sequence (P05177 whole entry): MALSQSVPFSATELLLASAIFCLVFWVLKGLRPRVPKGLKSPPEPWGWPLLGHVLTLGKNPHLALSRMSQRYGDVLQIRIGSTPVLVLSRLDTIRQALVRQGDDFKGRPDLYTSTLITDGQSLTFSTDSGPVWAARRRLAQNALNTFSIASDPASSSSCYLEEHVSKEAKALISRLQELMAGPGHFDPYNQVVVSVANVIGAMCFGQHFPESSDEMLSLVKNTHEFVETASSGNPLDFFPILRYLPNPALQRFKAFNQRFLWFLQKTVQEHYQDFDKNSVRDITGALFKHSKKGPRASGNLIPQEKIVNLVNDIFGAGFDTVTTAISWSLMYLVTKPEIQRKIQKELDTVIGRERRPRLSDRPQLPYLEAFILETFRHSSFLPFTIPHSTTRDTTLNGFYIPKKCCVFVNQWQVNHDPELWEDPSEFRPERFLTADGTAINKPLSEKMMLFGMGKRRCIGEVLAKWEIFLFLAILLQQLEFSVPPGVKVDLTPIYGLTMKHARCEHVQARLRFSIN

Cytochrome P450 3A4 [14] = molecular target: T2, Cytochrome P450 3A4; test: Inhibition of human CYP3A4 using BFC as substrate; format: ADME
[15] = Plasma concentration in C57Bl/6 mouse NOR model at 0.3 mg/kg, sc measured after 2 hrs; format: ADME, organism-based
[16] = Plasma concentration in C57Bl/6 mouse NOR model at 0.3 mg/kg, sc measured after 6 hrs; format: ADME, organism-based
[17] = Fraction unbound in rat plasma; format: ADME, cell-free
[18] = molecular target: Neuronal acetylcholine receptor; alpha4/beta2 (Rattus norvegicus, UniProt P09483+P12390); test: Agonist activity at rat alpha4beta2 nAChR expressed in HEK293 cells for 2 mins by FLIPR assay; format: cell-based
[19] = Fraction unbound in mouse plasma; format: ADME, cell-free
[20] = Drug uptake in C57Bl/6 mouse NOR model brain at 0.3 mg/kg, sc measured after 0.5 hrs; format: ADME, organism-based; details: read-out: Drug uptake
[21] = Drug uptake in C57Bl/6 mouse NOR model brain at 0.3 mg/kg, sc measured after 2 hrs; format: ADME, organism-based; details: read-out: Drug uptake
[22] = Plasma concentration in C57Bl/6 mouse NOR model at 0.3 mg/kg, sc measured after 0.5 hrs; format: ADME, organism-based
Cytochrome P450 2C19 = Cytochrome P450 2C19 (Homo sapiens, UniProt P33261); test: Inhibition of human CYP2C19; format: ADME
[23] = Drug uptake in C57Bl/6 mouse NOR model brain at 0.1 mg/kg, sc measured after 0.5 hrs; format: ADME, organism-based; details: read-out: Drug uptake
[24] = Metabolic stability in mouse microsomes assessed as compound remaining measured after 10 mins; format: ADME, Microsome; details: read-out: Stability
[25] = Drug uptake in C57Bl/6 mouse NOR model brain at 0.3 mg/kg, sc measured after 6 hrs; format: ADME, organism-based; details: read-out: Drug uptake
Cytochrome P450 2D6 = Cytochrome P450 2D6 (Homo sapiens, UniProt P10635); test: Inhibition of human CYP2D6; format: ADME
[26] = Fraction unbound in human plasma; format: ADME, cell-free
[27] = Metabolic stability in rat microsomes assessed as compound remaining measured after 10 mins; format: ADME, Microsome; details: read-out: Stability

T2 sequence (P08684 whole entry): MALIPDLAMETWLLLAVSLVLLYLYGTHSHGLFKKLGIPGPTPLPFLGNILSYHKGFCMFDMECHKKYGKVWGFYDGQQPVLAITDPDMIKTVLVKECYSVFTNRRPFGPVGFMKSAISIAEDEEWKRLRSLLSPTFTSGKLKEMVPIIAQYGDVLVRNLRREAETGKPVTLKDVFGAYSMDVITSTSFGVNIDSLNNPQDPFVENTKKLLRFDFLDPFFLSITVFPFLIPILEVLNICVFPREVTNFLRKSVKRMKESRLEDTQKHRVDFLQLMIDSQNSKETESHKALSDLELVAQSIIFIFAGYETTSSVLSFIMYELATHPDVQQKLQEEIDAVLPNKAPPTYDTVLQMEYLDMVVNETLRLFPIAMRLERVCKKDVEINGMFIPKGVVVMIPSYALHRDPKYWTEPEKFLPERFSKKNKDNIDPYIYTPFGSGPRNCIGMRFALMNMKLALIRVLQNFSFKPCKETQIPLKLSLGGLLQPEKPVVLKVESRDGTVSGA
Chain of Cytochrome P450 2C9 (P11712 whole entry): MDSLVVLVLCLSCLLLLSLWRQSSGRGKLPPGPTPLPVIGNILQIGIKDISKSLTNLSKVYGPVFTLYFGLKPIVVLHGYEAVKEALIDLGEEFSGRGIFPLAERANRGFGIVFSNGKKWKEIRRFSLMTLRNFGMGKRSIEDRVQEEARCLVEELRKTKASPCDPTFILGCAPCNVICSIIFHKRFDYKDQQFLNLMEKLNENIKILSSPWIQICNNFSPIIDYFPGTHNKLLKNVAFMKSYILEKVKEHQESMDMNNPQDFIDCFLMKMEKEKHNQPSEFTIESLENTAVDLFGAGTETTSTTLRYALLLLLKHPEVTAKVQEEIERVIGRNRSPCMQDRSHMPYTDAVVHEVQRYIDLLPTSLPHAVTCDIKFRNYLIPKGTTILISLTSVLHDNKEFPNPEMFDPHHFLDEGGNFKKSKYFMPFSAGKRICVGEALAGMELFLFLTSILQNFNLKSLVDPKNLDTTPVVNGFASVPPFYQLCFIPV
Chain of Cytochrome P450 2C19 (P33261 whole entry): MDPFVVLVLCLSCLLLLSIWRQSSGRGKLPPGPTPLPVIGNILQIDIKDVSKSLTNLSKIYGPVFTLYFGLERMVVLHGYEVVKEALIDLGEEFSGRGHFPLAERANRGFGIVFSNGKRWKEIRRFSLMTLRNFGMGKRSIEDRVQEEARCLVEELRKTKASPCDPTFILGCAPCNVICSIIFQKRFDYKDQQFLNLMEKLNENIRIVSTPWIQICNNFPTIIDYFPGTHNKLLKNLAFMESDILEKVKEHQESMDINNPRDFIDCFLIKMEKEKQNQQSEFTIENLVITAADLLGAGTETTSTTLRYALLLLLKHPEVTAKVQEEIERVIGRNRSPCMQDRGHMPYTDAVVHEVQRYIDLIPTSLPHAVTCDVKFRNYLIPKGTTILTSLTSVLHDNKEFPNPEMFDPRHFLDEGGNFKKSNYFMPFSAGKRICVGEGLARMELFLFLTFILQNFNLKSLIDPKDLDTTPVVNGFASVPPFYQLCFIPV
Chain of Cytochrome P450 2D6 (P10635 whole entry): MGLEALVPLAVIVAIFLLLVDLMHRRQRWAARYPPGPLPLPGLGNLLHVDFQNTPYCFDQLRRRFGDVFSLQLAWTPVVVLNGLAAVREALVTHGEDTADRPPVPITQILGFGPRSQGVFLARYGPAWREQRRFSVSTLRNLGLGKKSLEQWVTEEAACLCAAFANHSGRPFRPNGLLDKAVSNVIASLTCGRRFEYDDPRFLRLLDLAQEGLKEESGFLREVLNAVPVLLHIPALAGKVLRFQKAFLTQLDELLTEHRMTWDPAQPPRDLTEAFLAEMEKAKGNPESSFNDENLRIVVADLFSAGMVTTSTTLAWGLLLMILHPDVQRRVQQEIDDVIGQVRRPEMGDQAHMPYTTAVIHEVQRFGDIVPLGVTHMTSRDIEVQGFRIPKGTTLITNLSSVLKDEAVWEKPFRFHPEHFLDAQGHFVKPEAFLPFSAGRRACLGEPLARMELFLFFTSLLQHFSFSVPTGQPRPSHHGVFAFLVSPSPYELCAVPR
Chain of Nicotinic acetylcholine receptor alpha-1/beta-1/delta/epsilon (P25109 whole entry): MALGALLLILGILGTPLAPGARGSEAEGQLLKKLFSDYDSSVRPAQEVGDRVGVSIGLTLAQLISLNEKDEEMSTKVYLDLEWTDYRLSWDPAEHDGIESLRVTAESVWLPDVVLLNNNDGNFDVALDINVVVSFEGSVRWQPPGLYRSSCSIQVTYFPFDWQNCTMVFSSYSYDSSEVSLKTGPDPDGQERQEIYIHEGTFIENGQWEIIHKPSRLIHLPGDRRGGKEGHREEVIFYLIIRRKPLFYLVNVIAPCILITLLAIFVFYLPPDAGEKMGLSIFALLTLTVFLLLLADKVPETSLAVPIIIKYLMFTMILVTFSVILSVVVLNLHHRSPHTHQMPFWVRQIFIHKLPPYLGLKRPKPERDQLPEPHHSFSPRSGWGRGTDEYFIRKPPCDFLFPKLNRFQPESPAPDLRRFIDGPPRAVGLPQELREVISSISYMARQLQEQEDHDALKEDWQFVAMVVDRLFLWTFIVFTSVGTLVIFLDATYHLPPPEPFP
Chain of Nicotinic acetylcholine receptor alpha-1/beta-1/delta/epsilon (P25108 whole entry): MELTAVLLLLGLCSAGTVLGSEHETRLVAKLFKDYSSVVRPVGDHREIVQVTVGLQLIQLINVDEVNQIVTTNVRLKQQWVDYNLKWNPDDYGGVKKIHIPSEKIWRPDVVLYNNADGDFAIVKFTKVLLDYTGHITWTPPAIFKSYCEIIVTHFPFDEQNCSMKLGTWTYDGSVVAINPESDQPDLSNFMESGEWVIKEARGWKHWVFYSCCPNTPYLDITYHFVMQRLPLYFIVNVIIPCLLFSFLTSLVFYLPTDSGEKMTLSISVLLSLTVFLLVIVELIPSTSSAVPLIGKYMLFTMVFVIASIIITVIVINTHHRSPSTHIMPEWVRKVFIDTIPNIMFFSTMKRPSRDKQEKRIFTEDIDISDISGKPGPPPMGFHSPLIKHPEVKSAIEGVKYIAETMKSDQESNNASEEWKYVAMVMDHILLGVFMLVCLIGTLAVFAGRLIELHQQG
Chain of Nicotinic acetylcholine receptor alpha-1/beta-1/delta/epsilon (P25110 whole entry): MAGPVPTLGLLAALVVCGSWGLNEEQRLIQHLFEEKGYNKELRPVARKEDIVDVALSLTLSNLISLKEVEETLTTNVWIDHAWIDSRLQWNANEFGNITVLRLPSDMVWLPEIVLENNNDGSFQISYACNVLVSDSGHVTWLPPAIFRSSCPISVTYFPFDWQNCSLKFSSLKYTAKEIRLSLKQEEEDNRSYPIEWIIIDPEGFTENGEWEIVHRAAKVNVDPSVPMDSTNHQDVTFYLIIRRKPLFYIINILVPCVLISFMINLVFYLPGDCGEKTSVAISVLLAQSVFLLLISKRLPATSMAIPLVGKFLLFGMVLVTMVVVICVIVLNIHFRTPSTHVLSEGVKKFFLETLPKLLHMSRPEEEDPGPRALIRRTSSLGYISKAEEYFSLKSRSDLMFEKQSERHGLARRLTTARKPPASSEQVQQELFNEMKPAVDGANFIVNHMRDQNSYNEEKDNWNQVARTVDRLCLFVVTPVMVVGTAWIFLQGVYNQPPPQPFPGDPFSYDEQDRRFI
Chain of Nicotinic acetylcholine receptor alpha-1/beta-1/delta/epsilon (P09660 whole entry): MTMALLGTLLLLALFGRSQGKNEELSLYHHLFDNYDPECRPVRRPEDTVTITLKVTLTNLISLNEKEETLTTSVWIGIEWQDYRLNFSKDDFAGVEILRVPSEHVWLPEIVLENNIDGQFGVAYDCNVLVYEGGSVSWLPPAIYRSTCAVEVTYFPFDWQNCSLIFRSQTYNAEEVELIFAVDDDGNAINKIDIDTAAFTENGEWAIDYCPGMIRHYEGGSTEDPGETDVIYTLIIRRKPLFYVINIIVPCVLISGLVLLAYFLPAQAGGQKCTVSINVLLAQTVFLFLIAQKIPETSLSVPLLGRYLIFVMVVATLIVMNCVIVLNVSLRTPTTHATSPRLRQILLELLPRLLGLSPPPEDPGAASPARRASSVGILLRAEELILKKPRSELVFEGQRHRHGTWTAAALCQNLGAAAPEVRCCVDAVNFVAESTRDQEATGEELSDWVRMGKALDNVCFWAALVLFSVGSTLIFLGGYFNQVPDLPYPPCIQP
Chain of Neuronal acetylcholine receptor; alpha3/beta4 (P04757 whole entry): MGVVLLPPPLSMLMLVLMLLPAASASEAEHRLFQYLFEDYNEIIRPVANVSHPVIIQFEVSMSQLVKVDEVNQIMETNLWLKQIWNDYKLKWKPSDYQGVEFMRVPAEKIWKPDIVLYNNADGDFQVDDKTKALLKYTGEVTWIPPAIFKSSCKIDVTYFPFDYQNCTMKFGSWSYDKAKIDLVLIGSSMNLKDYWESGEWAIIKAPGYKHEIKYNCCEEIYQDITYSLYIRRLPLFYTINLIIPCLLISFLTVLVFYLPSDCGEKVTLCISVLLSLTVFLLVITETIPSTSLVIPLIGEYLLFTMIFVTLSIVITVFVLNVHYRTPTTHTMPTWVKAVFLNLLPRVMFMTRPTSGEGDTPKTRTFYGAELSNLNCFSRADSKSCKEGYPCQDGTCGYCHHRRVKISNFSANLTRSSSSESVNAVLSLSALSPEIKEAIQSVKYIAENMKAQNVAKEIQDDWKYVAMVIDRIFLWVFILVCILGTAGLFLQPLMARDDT
Chain of Neuronal acetylcholine receptor; alpha3/beta4 (P12392 whole entry): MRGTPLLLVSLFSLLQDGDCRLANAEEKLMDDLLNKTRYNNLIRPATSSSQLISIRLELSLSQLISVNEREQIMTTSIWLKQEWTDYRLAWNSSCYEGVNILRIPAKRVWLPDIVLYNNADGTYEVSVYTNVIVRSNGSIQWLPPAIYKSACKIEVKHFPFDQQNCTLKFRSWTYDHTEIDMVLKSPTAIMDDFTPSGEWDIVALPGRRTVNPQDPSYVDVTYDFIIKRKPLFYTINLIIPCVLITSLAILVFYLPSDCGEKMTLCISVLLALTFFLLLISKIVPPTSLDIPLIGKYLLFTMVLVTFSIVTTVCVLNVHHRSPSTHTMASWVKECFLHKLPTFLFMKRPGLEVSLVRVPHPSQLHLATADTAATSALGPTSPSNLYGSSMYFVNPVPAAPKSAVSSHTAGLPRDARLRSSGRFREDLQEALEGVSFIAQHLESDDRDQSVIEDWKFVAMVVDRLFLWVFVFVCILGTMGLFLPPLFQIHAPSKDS

c1ccc2cc(NC3=NC[C@@]4(CN5CCC4CC5)O3)ncc2c1
concentration at 0.5 h [1]: 19 nM
concentration at 0.5 h [2]: 744 nM
Activity (Mus musculus [3]): Active
remaining at 10 min [4]: 96%
minimal effective dose (Mus musculus [5]): 0.1 mg/kg
concentration at 0.5 h [6]: 16 nM
EC50 [7]: > 100 µM
IC50 (Cytochrome P450 2C8): > 40 µM
IC50 (Cytochrome P450 3A4 [8]): > 40 µM
IC50 (Cytochrome P450 2C9): > 40 µM
Activity (Mus musculus [9]): Active
Activity (Mus musculus [10]): Active
IC50 (Cytochrome P450 2B6): > 40 µM
concentration at 0.5 h [11]: 184 nM
concentration at 0.5 h [12]: 4 nM
EC50 [13]: > 100 µM
IC50 (Cytochrome P450 1A2): > 40 µM
IC50 (Cytochrome P450 3A4 [14]): > 40 µM
concentration at 2 h [15]: 26 nM
concentration at 6 h [16]: 9 nM
fraction unbound [17]: 0.269
EC50 [18]: > 100 µM
fraction unbound [19]: 0.23
concentration at 0.5 h [20]: 155 to 182 nM
concentration at 2 h [21]: 96 nM
concentration at 0.5 h [22]: 43 to 69 nM
IC50 (Cytochrome P450 2C19): > 40 µM
concentration at 0.5 h [23]: 57 nM
remaining at 10 min [24]: 1%
concentration at 6 h [25]: 18 nM
IC50 (Cytochrome P450 2D6): > 40 µM
fraction unbound [26]: 0.247
remaining at 10 min [27]: 89%
